For experiment [1], the system named is corn. Kind of experiment: Corn field trials in Iowa, nitrogen deficiency. Format: in vivo. An excerpt: In some instances, disclosed herein is a field trial of AB09 application to corn plants.
In some instances, disclosed herein is an aerial photograph description of a large scale strip field trial of corn plants applied with a compound, formulation, method, container, or kit disclosed herein, for example AB09. […] Greener (less yellow) coloring is indicative of healthier plants.
AB09 was applied to Buckingham, Iowa corn plots at the start of the season. In some instances, disclosed herein is a photo of corn at stage R3, with a treated plot on the right, and an untreated plot […]. Leaf firing (yellowing on the lower leaves) is apparent on the untreated plot, where AB09 plants are greener. In some instances, disclosed herein is an aerial image of treated and untreated plots at tasseling. […] Nitrogen content was quantified using a standard tissue sampling test to measure percent nitrogen content in leaf tissue samples.

Experiment [2] deals with soil consortia cultures. The experiment is described as follows: 16S microbiome analysis of soil cultures grown in nitrogen free media. It is filed as cell-based. To be noted: Alpha soil culture, 25 ug/mL, 72 h, vs control. As to the method: 16S microbiome analysis was performed on soil-inoculated cultures grown in nitrogen free media in order to compare the effects of AB09 treatment vs control. […] The increased abundance of these diazotrophs in response to AB09 is consistent with the increased nitrogenase activity observed in Table 1 for Alpha soil. […] Known nitrogen fixing bacteria are indicated with an asterisk (*). Soil inoculated cultures (from Alpha Ag soil culture from Table 1) experience an increase in the relative abundance of diazotrophs when treated with AB09. Soil from agricultural areas was air dried and sieved with a 2 mm sieve. Five hundred milligrams of dried, sieved soil was added to 50 mL of nitrogen free media (Burks-N) in a 250 mL baffled flask. AB09 was added to 25 ug/mL and water was added in equivalent amounts for controls. Flasks were topped with a foam plug and incubated at 30 C, shaking at 100 rpm. DNA was extracted from 250 ul of the soil culture after 72 h of growth using the Qiagen PowerSoil Pro Kit (Cat No. 47014). DNA was checked on a gel and Qubit for quality and concentration, respectively. Ten nanograms of DNA was used in the 16S barcoding kit (SQK-RAB204) with the MinION sequencer. Fastq files from MinKnow were uploaded to Epi2Me and the 16S Oxford Nanopore Technologies kit (SQK-RAB204) was selected. […] Read counts were normalized to the total number of reads with an identified barcode.

These results are taken from patent US12239132B2, “Compounds and methods for increasing soil nutrient availability” (SOUND AGRICULTURE COMPANY, priority 2018, dated 2025).

“Also recorded” adds a separate entry of the source.

In the case of `CC1=CC(Oc2c(C)occc2=O)OC1=O` (centres unmarked) [AB09, maltol lactone], in experiment [1] (Buckingham, Iowa corn plots, stage R3, vs untreated plot), the “leaf firing (yellowing of the lower leaves) of corn” value is on record as “greener; also recorded: reduced leaf firing”. Besides, the “nitrogen content in corn leaf tissue samples” value in experiment [1] (compared to a control sample) was “higher leaf nitrogen content”. Also, in experiment [1] (large scale strip field trial, aerial photograph, vs control plants), the “yellowing of corn plants at de-tassling” value was “reduced yellowing”. Further, in experiment [1] (treated strip vs untreated plot), the “NDVI of plots at tasseling (aerial image)” value is “higher NDVI values”. The “abundance of nitrogen fixing bacteria Azotobacter chroococcum and Pseudomonas stutzeri” value in experiment [2] is “increased the abundance”.
